{"source": "paper PMC9061999", "about": "“Application of the Adverse Outcome Pathway Concept to In Vitro Nephrotoxicity Assessment: Kidney Injury due to Receptor-Mediated Endocytosis and Lysosomal Overload as a Case Study” (Frontiers in Toxicology, 2022)", "key": {"RPTEC/TERT1 cells": {"tested_on": "RPTEC/TERT1 cells", "test": "Cathepsin D immunofluorescence (KE2, disruption of lysosomes)", "assay_type": "cell-based, human", "method": "For immunocytochemistry experiments, cells were seeded into 8-well chamber slides (Ibidi) at a density of 140 cells per µL in 300 µL growth medium and were allowed to grow for 48 h (NRK-52E) or 10 d (RPTEC/TERT1) respectively. For treatment, stock solutions (1,000 µM) of compounds dissolved in growth medium were freshly prepared and serial dilutions were made before exposure of cells for 24 h. After treatment, cells were washed twice with 150 µL PBS and fixed with 150 µL 4% paraformaldehyde in 1 x PBS for 10 min at room temperature. […]\nAfter incubation with primary antibody, cells were washed three times for 15 min with 0.2% Tween in 1 x PBS (150 µL) on an orbital shaker. […] To preserve fluorescence 50–100 µL DAPI mounting medium (Vectashield®; Vectorlab, Biozol) was added to the cells and chamber slides were stored at 4°C in the dark until image acquisition.\nImages were taken with a TCS SP5 II confocal microscope with an HCX PL APO lambda blue 63.0 × 1.40 OIL UV objective (Leica Microsystems, Wetzlar, GER) (n = 10 cells/treatment group). […] Before quantification, images were blinded and randomized. Quantification of fluorescence intensity was performed using NIH Image® software. […] The mean values of the pixel intensities were automatically calculated by the software and imported in Excel for further processing."}, "[1]": {"tested_on": "RPTEC/TERT1 and NRK-52E cells", "test": "In vitro key event assays (LAMP-1/2, cathepsin D, cell viability) compared across both cell models", "assay_type": "cell-based, human and rat", "method": "Cells were plated into 96-well tissue culture plates (10,000 cells per well) and were allowed to grow for 48 h (NRK-52E) respectively 10 d (RPTEC/TERT1) prior to 24 h treatment with model stressors. Stock solution for each compound (2000 µM) was prepared in growth medium and serial dilutions (1:1) were made before each experiment. At the end of the 24 h treatment, cell viability was measured using the CellTiter-Glo® assay (Promega). CellTiter-Glo® reagents and buffer were mixed under light-protected conditions and 100 µL CellTiter-Glo® solution was added directly to each well followed by 2 min incubation on an orbital shaker and 10 min incubation at room temperature in the dark to stabilize the luminescence signal. The suspension was mixed via pipetting and 50 µL were transferred into white 96-well plates (PerkinElmer Inc.). The luminescence signal was measured on a multiplate reader (Mithras LB 940; Berthold). Each assay was performed in three independent experiments carried out in triplicates.\nFor immunocytochemistry experiments, cells were seeded into 8-well chamber slides (Ibidi) at a density of 140 cells per µL in 300 µL growth medium and were allowed to grow for 48 h (NRK-52E) or 10 d (RPTEC/TERT1) respectively. For treatment, stock solutions (1,000 µM) of compounds dissolved in growth medium were freshly prepared and serial dilutions were made before exposure of cells for 24 h. After treatment, cells were washed twice with 150 µL PBS and fixed with 150 µL 4% paraformaldehyde in 1 x PBS for 10 min at room temperature. After fixation, cells were washed 10 min with 150 µL PBS on an orbital shaker followed by permeabilization with 150 µL 0.2% Triton X-100 in 1 x PBS for 5 min at room temperature on an orbital shaker. The permeabilized cells were washed twice with 1 x PBS (150 µL) for 10 min at room temperature on an orbital shaker and then incubated with 150 µL 5% BSA dissolved in 1 x PBS for 1 h at room temperature to block unspecific binding sites. After blocking, 100 µL primary antibody diluted 1:100 in 1% BSA in 1 x PBS were directly pipetted onto the cells and incubated overnight at 4°C. The following antibodies were employed for NRK-52E cells: Anti-LAMP-1 monoclonal IgG1 kappa mouse antibody (Santa Cruz; sc-20011), anti-Cathepsin D mouse monoclonal IgG2 kappa antibody (Santa Cruz; sc-377124); for RPTEC/TERT1 cells: Anti-LAMP-2 monoclonal mouse antibody (Santa Cruz; sc-18822), anti-Cathepsin D mouse monoclonal IgG2b kappa (Novus Biologicals; NBP1-04278); for both cell lines anti-megalin mouse monoclonal IgG1 antibody (Santa Cruz, sc-515772).\nAfter incubation with primary antibody, cells were washed three times for 15 min with 0.2% Tween in 1 x PBS (150 µL) on an orbital shaker. Cells were incubated for 1 h at room temperature with 100 µL CFL 488-conjugated mouse IgG kappa binding protein (1:50) (m-IgGκ BP-CFL 488; Santa Cruz, sc-516176). After incubation the cells were washed three times for 15 min with 0.2% Tween in 1 x PBS on an orbital shaker and once with 150 µL sterile water. Phalloidin-tetramethylrhodamine B isothiocyanate (TRITC) was used to stain the cytoskeleton and was diluted in 100% methanol to a stock concentration of 0.1 mg/ml and further diluted in 1 x PBS to a working concentration of 0.095 µM. After cells were washed once with 1 x PBS for 10 min at room temperature 150 µL phalloidin-TRITC working solution was added and the cells were incubated on an orbital shaker at room temperature for 60–90 min. After incubation, phalloidin-TRITC solution was aspirated, and the cells were washed once with 1 x PBS. Chamber slides were allowed to dry for 15 min at room temperature. To preserve fluorescence 50–100 µL DAPI mounting medium (Vectashield®; Vectorlab, Biozol) was added to the cells and chamber slides were stored at 4°C in the dark until image acquisition. […]"}}, "data": [{"substance": "Polymyxin B", "values": [{"measurement": "BMC10, KE2", "setting": "RPTEC/TERT1 cells; in vitro POD from KE dose-response, cathepsin D intensity, RPTEC/TERT1, 24 h treatment, n = 3", "result": 6.8, "unit": "µM"}, {"measurement": "MOE, KE2", "setting": "RPTEC/TERT1 cells; margin of exposure: BMC10 in RPTEC/TERT1 vs human plasma/serum concentration (cmax or css)", "result": "1.7 - 11.9"}, {"measurement": "Cytotoxicity compared between RPTEC/TERT1 and NRK-52E cells", "setting": "[1]; 24 h treatment, cell viability", "result": "RPTEC/TERT1 cells were found to be significantly more sensitive"}, {"measurement": "Rank order of effects of the 3 polymyxin derivatives across all KEs", "setting": "[1]; RPTEC/TERT1 and NRK-52E, 24 h", "result": "most active"}, {"measurement": "Effect on cathepsin D fluorescence intensity (KE2)", "setting": "[1]; RPTEC/TERT1 and NRK-52E, 24 h, immunocytochemistry, quantitative image analysis", "result": "concentration-dependent decrease in fluorescence intensity"}, {"measurement": "Effect on LAMP-1/2 expression (KE1)", "setting": "[1]; RPTEC/TERT1 and NRK-52E, 24 h, immunofluorescence image analysis", "result": "significant, concentration-dependent increase in LAMP-1/2 expression"}, {"measurement": "Effect on cell viability / cytotoxicity (KE3)", "setting": "[1]; RPTEC/TERT1 and NRK-52E, 24 h treatment, CellTiter-Glo", "result": "concentration-dependent decrease in cell viability"}]}]}
